Assay results reported in article PMC8192780 (2021).

Assays:
[1] = test system: c7G15 Chili with r4CI at 46 (R3 ligated to R5) (RNA, aptamer, 7-deazaguanine (c7G) at 15; 4-cyanoindole ribonucleoside (r4CI) replaces G46; 3'-phosphate on printed 3' fragment) GGCUAGCUGGAGGGGCGCCAGUUCGCUGGUGGUUGGGUGCGGUCGGCUAGCC; experiment: FRET from r4CI to ligand; conditions: K+ 125 mM, Mg2+ 5 mM; 40 mM HEPES pH 7.5
[2] = test system: Chili C40U (Tr13) (RNA, aptamer) GGCUAGCUGGAGGGGCGCCAGUUCGCUGGUGGUUGGGUGUGGUCGGCUAGCC; experiment: absorbance and fluorescence; conditions: K+ 125 mM, Mg2+ 5 mM; 40 mM HEPES pH 7.5; 5 µM RNA and ligand; 30% reduced fluorescence
[3] = test system: Chili G15A (Tr12) (RNA, aptamer) GGCUAGCUGGAGGGACGCCAGUUCGCUGGUGGUUGGGUGCGGUCGGCUAGCC; experiment: absorbance and fluorescence; conditions: K+ 125 mM, Mg2+ 5 mM; 40 mM HEPES pH 7.5; 5 µM RNA and ligand
[4] = test system: Chili G15A/C40U (Tr14) (RNA, aptamer) GGCUAGCUGGAGGGACGCCAGUUCGCUGGUGGUUGGGUGUGGUCGGCUAGCC; experiment: absorbance and fluorescence; conditions: K+ 125 mM, Mg2+ 5 mM; 40 mM HEPES pH 7.5; 5 µM RNA and ligand; binding site only partially restored
[5] = test system: Parent Chili (Tr1) (RNA, aptamer) GGCUAGCUGGAGGGGCGCCAGUUCGCUGGUGGUUGGGUGCGGUCGGCUAGCC; experiment: fluorescence activation; conditions: 40 mM HEPES pH 7.5
[6] = test system: c7G15 Chili with r4CI at 34 (R3 ligated to R4) (RNA, aptamer, 7-deazaguanine (c7G) at 15; 4-cyanoindole ribonucleoside (r4CI) replaces U34; 3'-phosphate on printed 3' fragment) GGCUAGCUGGAGGGGCGCCAGUUCGCUGGUGGUUGGGUGCGGUCGGCUAGCC; experiment: FRET from r4CI to ligand; conditions: K+ 125 mM, Mg2+ 5 mM; 40 mM HEPES pH 7.5
[7] = test system: c7G15-modified Chili (R3 ligated to R2) (RNA, aptamer, 7-deazaguanine (c7G) at 15; 3'-phosphate on printed 3' fragment) GGCUAGCUGGAGGGGCGCCAGUUCGCUGGUGGUUGGGUGCGGUCGGCUAGCC; experiment: absorbance and fluorescence; conditions: K+ 125 mM, Mg2+ 5 mM; 40 mM HEPES pH 7.5; 10 µM RNA and ligand (absorbance)
[8] = test system: Parent Chili (Tr1) (RNA, aptamer) GGCUAGCUGGAGGGGCGCCAGUUCGCUGGUGGUUGGGUGCGGUCGGCUAGCC; experiment: X-ray crystallography; conditions: K+ 50 mM, Mg2+ 5 mM, 10 mM HEPES pH 8.0, then MES pH 5.4-5.8, spermine, PEG 400
[9] = test system: Chili P1-2 (Tr5) (RNA, aptamer) GGAGCUGGAGGGGCGCCAGUUCGCUGGUGGUUGGGUGCGGUCGGCUCC; experiment: fluorescence activation; conditions: K+ 125 mM, Mg2+ 5 mM; 40 mM HEPES pH 7.5; 1 µM RNA and ligand; >80% of parent
[10] = test system: Chili P1C (Tr2) (RNA, aptamer) GGCUAGCCGGAGGGGCGCCAGUUCGCUGGUGGUUGGGUGCGGUCGGCUAGCC; experiment: fluorescence activation; conditions: K+ 125 mM, Mg2+ 5 mM; 40 mM HEPES pH 7.5; 1 µM RNA and ligand; slower maturation than parent
[11] = test system: Chili P1A (Tr3) (RNA, aptamer) GGCUAGCUGGAGGGGCGCCAGUUCGCUGGUGGUUGGGUGCGGUCAGCUAGCC; experiment: fluorescence activation; conditions: K+ 125 mM, Mg2+ 5 mM; 40 mM HEPES pH 7.5; 1 µM RNA and ligand; slower maturation than parent
[12] = test system: circularly permuted Chili aptamer (Tr10) (RNA, aptamer) GGGUGCGGUCAGUCCGGAAGGACUGGAGGGGCGCCAGUUCGCUGGUGGUU; experiment: fluorescence activation; conditions: K+ 125 mM, Mg2+ 5 mM; 40 mM HEPES pH 7.5; 75% of P1A fluorescence enhancement
[13] = test system: Chili P1-1 (Tr4) (RNA, aptamer) GGCAGCUGGAGGGGCGCCAGUUCGCUGGUGGUUGGGUGCGGUCGGCUGCC; experiment: fluorescence activation; conditions: K+ 125 mM, Mg2+ 5 mM; 40 mM HEPES pH 7.5; 1 µM RNA and ligand; >80% of parent
[14] = test system: Chili P1-3 (Tr6) (RNA, aptamer) GGACUGGAGGGGCGCCAGUUCGCUGGUGGUUGGGUGCGGUCGGUCC; experiment: fluorescence activation; conditions: K+ 125 mM, Mg2+ 5 mM; 40 mM HEPES pH 7.5; 1 µM RNA and ligand; >80% of parent

Structure (SMILES) | binding [1] | binding [2] | binding [3] | binding [4] | binding ([5]; Na+ (replaces K+, 125 mM), 25% residual intensity against K+) | binding ([5]; Tl+ (replaces K+, 125 mM), intensity preserved against K+) | binding [6] | binding [7] | binding ([8]; 2.25 Å) | binding [9] | binding [10] | binding [11] | binding [12] | binding [13] | binding [14] | binding ([8]; 2.95 Å)
COc1cc(/C=C2N=C(/C=N/O)N(c3ccc([N+](C)(C)C)cc3)C\2=O)cc(OC)c1O | no | yes | no | yes | yes | yes | no | no | yes |  |  |  |  |  |  | 
COc1cc(/C=C2\N=C(C)N(c3ccc([N+](C)(C)C)cc3)C2=O)cc(OC)c1O |  |  |  |  |  |  |  |  |  | yes | yes | yes | yes | yes | yes | yes
